ChEMBL document CHEMBL3098080, “Replacement of amide with bioisosteres led to a new series of potent adenosine A2A receptor antagonists” (Bioorg Med Chem Lett, 2014)

What was measured:
[1] = biological target: T1, Adenosine receptor A2a (Homo sapiens, UniProt P29274); assay: Inhibition of adenosine A2A receptor (unknown origin) at 100 umol/L relative to control
[2] = biological target: T1, Adenosine receptor A2a; assay: Displacement of [3H]-ZM241385 from human adenosine A2A receptor expressed in HEK293 cells; assay type: cell-based
[3] = Chemical stability in 0.2N HCl in methanol after 24 hrs; assay type: physicochemical

T1 sequence (P29274 whole entry): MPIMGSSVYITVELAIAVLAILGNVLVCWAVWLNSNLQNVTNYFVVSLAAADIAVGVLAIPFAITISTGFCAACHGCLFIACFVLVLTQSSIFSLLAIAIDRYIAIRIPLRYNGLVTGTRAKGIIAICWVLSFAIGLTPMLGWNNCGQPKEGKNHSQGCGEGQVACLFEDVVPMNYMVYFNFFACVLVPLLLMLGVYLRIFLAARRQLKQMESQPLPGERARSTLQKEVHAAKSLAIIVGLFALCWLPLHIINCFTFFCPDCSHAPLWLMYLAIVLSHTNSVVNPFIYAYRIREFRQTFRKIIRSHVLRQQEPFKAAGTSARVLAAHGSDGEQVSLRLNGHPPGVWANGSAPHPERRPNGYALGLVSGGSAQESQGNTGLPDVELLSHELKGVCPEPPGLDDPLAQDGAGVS

SMILES	inhibition [1]	Ki [2]	Stability [3]
COC[C@H]1CCCN1c1cc(Nc2nccs2)nc(-n2nc(C)cc2C)n1	123%	9.5 nM	Stable
Cc1cc(C)n(-c2nc(Nc3nccs3)cc(N3CCc4ccccc4C3)n2)n1	117%	66 nM	
Cc1cc(C)n(-c2nc(Nc3ncccn3)cc(-n3cccn3)n2)n1	23%		
COC[C@H]1CCCN1c1cc(Nc2ccccn2)nc(-n2nc(C)cc2C)n1	124%	45 nM	Stable
COC[C@H]1CCCN1c1cc(NCC(F)(F)F)nc(-n2nc(C)cc2C)n1	115%	24 nM	Stable
COC[C@H]1CCCN1c1cc(Nc2cnccn2)nc(-n2nc(C)cc2C)n1	124%	69 nM	Stable
Cc1cc(C)n(-c2nc(Nc3ncccn3)cc(N3CCc4ccccc4C3)n2)n1	-5%		
COCCOc1ccc(N2CCN(CCn3ncc4c3nc(N)n3nc(-c5ccco5)nc43)CC2)cc1 [PRELADENANT]	120%	1 nM	
Cc1cc(C)n(-c2nc(Nc3ccccn3)cc(N3CCc4ccccc4C3)n2)n1	95%	65 nM	
Cc1cc(C)n(-c2nc(Nc3ccccn3)cc(-n3cccn3)n2)n1	117%	9.2 nM	
Cc1cc(C)n(-c2nc(NCC(F)(F)F)cc(N3CCc4ccccc4C3)n2)n1	64%		
Cc1cc(C)n(-c2nc(Nc3nccs3)cc(-n3cccn3)n2)n1	58%		
COC[C@H]1CCCN1c1cc(NC(C)=O)nc(-n2nc(C)cc2C)n1	123%	15 nM	
Cc1cc(C)n(-c2nc(Nc3cnccn3)cc(-n3cccn3)n2)n1	117%	43 nM	
Cc1cc(C)n(-c2nc(Nc3cnccn3)cc(N3CCc4ccccc4C3)n2)n1	121%	1.1 nM	
Cc1cc(C)n(-c2nc(NCC(F)(F)F)cc(-n3cccn3)n2)n1	117%	52 nM	
COC[C@H]1CCCN1c1cc(Nc2ncccn2)nc(-n2nc(C)cc2C)n1	71%		
